Eight molecules from US20260234157A1, “COMPOUND AND METHOD FOR TARGETED DEGRADATION OF ANDROGEN RECEPTOR” (Gan & Lee Pharmaceuticals Co., Ltd., priority 2023, published 2026) can be followed below.

Changes are numbered by the printed parent chain.

In the first assay the target is T1, AR protein (Homo sapiens, UniProt P10275).
T1 construct: degradation activity of the compounds disclosed in the present disclosure on AR protein in VCaP cells; host or cells: VCaP
T1 sequence (P10275 1-920): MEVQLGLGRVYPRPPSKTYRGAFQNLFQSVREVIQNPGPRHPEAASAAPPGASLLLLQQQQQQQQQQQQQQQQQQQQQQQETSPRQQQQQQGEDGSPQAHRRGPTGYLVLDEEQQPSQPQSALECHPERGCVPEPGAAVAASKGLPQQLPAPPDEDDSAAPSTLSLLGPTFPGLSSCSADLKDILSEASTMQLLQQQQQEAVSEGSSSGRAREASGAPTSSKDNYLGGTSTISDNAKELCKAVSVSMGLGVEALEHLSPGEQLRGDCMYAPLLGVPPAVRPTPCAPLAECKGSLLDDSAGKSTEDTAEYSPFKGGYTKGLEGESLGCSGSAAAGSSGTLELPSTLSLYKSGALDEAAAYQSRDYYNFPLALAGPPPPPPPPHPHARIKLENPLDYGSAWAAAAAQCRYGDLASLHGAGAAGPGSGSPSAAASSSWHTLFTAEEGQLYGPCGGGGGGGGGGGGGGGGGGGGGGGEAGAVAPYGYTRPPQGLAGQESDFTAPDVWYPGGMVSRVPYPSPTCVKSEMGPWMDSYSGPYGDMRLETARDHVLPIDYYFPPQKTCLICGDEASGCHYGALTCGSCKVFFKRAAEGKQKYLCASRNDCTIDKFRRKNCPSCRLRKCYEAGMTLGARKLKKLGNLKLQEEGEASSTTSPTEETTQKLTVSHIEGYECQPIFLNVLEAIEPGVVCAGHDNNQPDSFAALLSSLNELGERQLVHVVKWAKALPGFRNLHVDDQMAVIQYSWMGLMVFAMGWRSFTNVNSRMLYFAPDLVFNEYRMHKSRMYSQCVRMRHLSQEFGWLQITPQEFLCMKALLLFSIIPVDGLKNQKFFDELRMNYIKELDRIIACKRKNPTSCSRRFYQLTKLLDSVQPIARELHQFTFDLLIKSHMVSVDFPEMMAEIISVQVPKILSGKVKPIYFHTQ
In words: Degradation of AR protein in VCaP cells (Western blot). The class given is cell-based. As to conditions: compound at 10 nM, 8 hours, read-out: Degradation rate of the AR protein in VCaP cells, 10 nM (%). The protocol:
The degradation activity of the compounds disclosed in the present disclosure on AR protein in VCaP cells (cell source: ATCC)
(§1) Corresponding solvent controls were also set and cultured for 8 hours. After 8 hours of cultivation, the culture medium was removed and the cells were washed with PBS. RIPA lysis buffer containing 1% Protease Inhibitor Cocktail was added, and the total protein extract was obtained by lysis and centrifugation. The protein concentration in the extract was detected by BCA method. Protein electrophoresis was performed using SDS-PAGE, followed by transfer of the protein onto a PVDF (Millipore Sigma catalog No. PSRP010R5) membrane at 100V constant voltage for 60 minutes. The PVDF membrane was then placed in a 1×TBST solution with 5% milk and blocked at room temperature for 1 hour. […] The primary antibody solution was discarded and the PVDF membrane was washed three times with 1×TBST for 5 minutes/time. […] The secondary antibody solution was discarded and the PVDF membrane was washed three times with 1×TBST for 5 minutes/time. Western blot imaging was performed by using a dual color infrared laser imaging system (Licor catalog No. Odyssey CLX). Bands were analyzed in grayscale using Image Studio software. For each sample, GAPDH protein bands were detected as internal reference. The degradation rates of the AR protein for the compounds and the positive control sample were calculated based on grayscale of the protein bands.
Consider `N#Cc1ccc(O[C@H]2CC[C@H](NC(=O)c3ccc(N4CCC(CN5CCC6(CC5)Cc5cc7c(cc5O6)C(=O)N(C5CCC(=O)NC5=O)C7=O)CC4)nn3)CC2)cc1Cl` (stereo partly drawn) [Compound 78], for which the inhibition at 0.01 µM came to 72%.
Same read-out and setting: to `N#Cc1ccc(O[C@H]2CC[C@H](NC(=O)c3ccc(N4CC(N5CCC6(CC5)Cc5cc7c(cc5O6)C(=O)N(C5CCC(=O)NC5=O)C7=O)C4)nn3)CC2)cc1Cl` (stereo partly drawn) [Compound 79] belongs 36%; to `N#Cc1ccc(O[C@H]2CC[C@H](NC(=O)c3ccc(N4CCC5(CCC(N6CCC7(CC6)COc6c7ccc7c6CN(C6CCC(=O)NC6=O)C7=O)CC5)CC4)nn3)CC2)cc1Cl` (stereo partly drawn) [Compound 137], 80%.
On the same count and under the same terms, to `N#Cc1ccc(O[C@H]2CC[C@H](NC(=O)c3ccc(N4CCC(N5CC(N6CCC7(CC6)COc6c7ccc7c6CN(C6CCC(=O)NC6=O)C7=O)C5)CC4)nn3)CC2)cc1Cl` (stereo partly drawn) [Compound 144] belongs 82%.
Take `CCOC1(CN2CCC3(CC2)COc2c3ccc3c2CN(C2CCC(=O)NC2=O)C3=O)CCN(c2ccc(C(=O)N[C@H]3CC[C@H](Oc4ccc(C#N)c(Cl)c4)CC3)nn2)CC1` (stereo partly drawn) [Compound 155]: the inhibition at 0.01 µM was 58%.
Turning to `N#Cc1ccc(O[C@H]2CC[C@H](NC(=O)c3ccc(N4CCC(C#N)(CN5CCC6(CC5)COc5c6ccc6c5CN(C5CCC(=O)NC5=O)C6=O)CC4)nn3)CC2)cc1Cl` (stereo partly drawn) [Compound 156], the inhibition at 0.01 µM turned out to be 37%.
Take `N#Cc1ccc(O[C@H]2CC[C@H](NC(=O)c3cnc(N4CCC(F)(CN5CCC6(CC5)COc5c6ccc6c5CN(C5CCC(=O)NC5=O)C6=O)CC4)cn3)CC2)cc1Cl` (stereo partly drawn) [Compound 157]: the inhibition at 0.01 µM is 46%.

Still in this assay, the particulars now being: compound at 100 nM, 8 hours, read-out: Degradation rate of the AR protein in VCaP cells, 100 nM (%).
Take `N#Cc1ccc(O[C@H]2CC[C@H](NC(=O)c3ccc(N4CCC(CN5CCC6(CC5)Cc5cc7c(cc5O6)C(=O)N(C5CCC(=O)NC5=O)C7=O)CC4)nn3)CC2)cc1Cl` (stereo partly drawn) [Compound 78]: the inhibition at 0.1 µM amounted to 57%.
As to `N#Cc1ccc(O[C@H]2CC[C@H](NC(=O)c3ccc(N4CC(N5CCC6(CC5)Cc5cc7c(cc5O6)C(=O)N(C5CCC(=O)NC5=O)C7=O)C4)nn3)CC2)cc1Cl` (stereo partly drawn) [Compound 79], the inhibition at 0.1 µM was found to be 42%.
As to `N#Cc1ccc(O[C@H]2CC[C@H](NC(=O)c3ccc(N4CCC5(CCC(N6CCC7(CC6)COc6c7ccc7c6CN(C6CCC(=O)NC6=O)C7=O)CC5)CC4)nn3)CC2)cc1Cl` (stereo partly drawn) [Compound 137], the inhibition at 0.1 µM was determined as 90%.
Take `N#Cc1ccc(O[C@H]2CC[C@H](NC(=O)c3ccc(N4CCC(N5CC(N6CCC7(CC6)COc6c7ccc7c6CN(C6CCC(=O)NC6=O)C7=O)C5)CC4)nn3)CC2)cc1Cl` (stereo partly drawn) [Compound 144]: the inhibition at 0.1 µM came to 86%.
`CCOC1(CN2CCC3(CC2)COc2c3ccc3c2CN(C2CCC(=O)NC2=O)C3=O)CCN(c2ccc(C(=O)N[C@H]3CC[C@H](Oc4ccc(C#N)c(Cl)c4)CC3)nn2)CC1` (stereo partly drawn) [Compound 155]: the inhibition at 0.1 µM was 80%.
For the molecule `N#Cc1ccc(O[C@H]2CC[C@H](NC(=O)c3ccc(N4CCC(C#N)(CN5CCC6(CC5)COc5c6ccc6c5CN(C5CCC(=O)NC5=O)C6=O)CC4)nn3)CC2)cc1Cl` (stereo partly drawn) [Compound 156], the inhibition at 0.1 µM is 75%.
Turning to `N#Cc1ccc(O[C@H]2CC[C@H](NC(=O)c3cnc(N4CCC(F)(CN5CCC6(CC5)COc5c6ccc6c5CN(C5CCC(=O)NC5=O)C6=O)CC4)cn3)CC2)cc1Cl` (stereo partly drawn) [Compound 157], the inhibition at 0.1 µM was determined as 84%.

The target in a further assay is T2, AR protein (Homo sapiens, UniProt P10275, T878A).
T2 construct: degradation activity of the compounds disclosed in the present disclosure on AR protein in LNCaP cells; host or cells: LNCaP FGC
T2 sequence (P10275 1-920 T878A): T1 sequence (P10275 1-920) with T878A
In words: Degradation of AR protein in LNCaP cells (Western blot). The class given is cell-based. As to conditions: LNCaP cells, compound 10 nM, 8 hours, Western blot grayscale, GAPDH internal reference; read-out: Degradation rates of the AR protein in LNCaP cells, 10 nM (%). The method, then: The degradation activity of the compounds disclosed in the present disclosure on AR protein in LNCaP cells (cell source: ATCC)
as §1
For the molecule `N#Cc1ccc(O[C@H]2CC[C@H](NC(=O)c3ccc(N4CCC(CN5CCC6(CC5)Cc5cc7c(cc5O6)C(=O)N(C5CCC(=O)NC5=O)C7=O)CC4)nn3)CC2)cc1Cl` (stereo partly drawn) [Compound 78], the inhibition at 0.01 µM was found to be 67%.
Same read-out and setting: to `N#Cc1ccc(O[C@H]2CC[C@H](NC(=O)c3ccc(N4CCC5(CCC(N6CCC7(CC6)COc6c7ccc7c6CN(C6CCC(=O)NC6=O)C7=O)CC5)CC4)nn3)CC2)cc1Cl` (stereo partly drawn) [Compound 137] belongs 68%; to `N#Cc1ccc(O[C@H]2CC[C@H](NC(=O)c3ccc(N4CCC(N5CC(N6CCC7(CC6)COc6c7ccc7c6CN(C6CCC(=O)NC6=O)C7=O)C5)CC4)nn3)CC2)cc1Cl` (stereo partly drawn) [Compound 144], 68%.
Still for that read-out and setting: to `CCOC1(CN2CCC3(CC2)COc2c3ccc3c2CN(C2CCC(=O)NC2=O)C3=O)CCN(c2ccc(C(=O)N[C@H]3CC[C@H](Oc4ccc(C#N)c(Cl)c4)CC3)nn2)CC1` (stereo partly drawn) [Compound 155] belongs 29%.
Same read-out and setting: to `N#Cc1ccc(O[C@H]2CC[C@H](NC(=O)c3ccc(N4CCC(C#N)(CN5CCC6(CC5)COc5c6ccc6c5CN(C5CCC(=O)NC5=O)C6=O)CC4)nn3)CC2)cc1Cl` (stereo partly drawn) [Compound 156] belongs 52%; to `N#Cc1ccc(O[C@H]2CC[C@H](NC(=O)c3cnc(N4CCC(F)(CN5CCC6(CC5)COc5c6ccc6c5CN(C5CCC(=O)NC5=O)C6=O)CC4)cn3)CC2)cc1Cl` (stereo partly drawn) [Compound 157], 51%.
In the case of `N#Cc1ccc(O[C@H]2CC[C@H](NC(=O)c3ccc(N4CCC5(CC4)CC(N4CCC6(CC4)COc4c6ccc6c4CN(C4CCC(=O)NC4=O)C6=O)C5)nn3)CC2)cc1Cl` (stereo partly drawn) [Compound 184], the inhibition at 0.01 µM came out at 79%.

Still in this assay, the particulars now being: LNCaP cells, compound 100 nM, 8 hours, Western blot grayscale, GAPDH internal reference; read-out: Degradation rates of the AR protein in LNCaP cells, 100 nM (%).
On to `N#Cc1ccc(O[C@H]2CC[C@H](NC(=O)c3ccc(N4CCC(CN5CCC6(CC5)Cc5cc7c(cc5O6)C(=O)N(C5CCC(=O)NC5=O)C7=O)CC4)nn3)CC2)cc1Cl` (stereo partly drawn) [Compound 78], for which the inhibition at 0.1 µM came out at 70%.
In the case of `N#Cc1ccc(O[C@H]2CC[C@H](NC(=O)c3ccc(N4CCC5(CCC(N6CCC7(CC6)COc6c7ccc7c6CN(C6CCC(=O)NC6=O)C7=O)CC5)CC4)nn3)CC2)cc1Cl` (stereo partly drawn) [Compound 137], the inhibition at 0.1 µM was 21%.
For the molecule `N#Cc1ccc(O[C@H]2CC[C@H](NC(=O)c3ccc(N4CCC(N5CC(N6CCC7(CC6)COc6c7ccc7c6CN(C6CCC(=O)NC6=O)C7=O)C5)CC4)nn3)CC2)cc1Cl` (stereo partly drawn) [Compound 144], the inhibition at 0.1 µM turned out to be 39%.
As to `CCOC1(CN2CCC3(CC2)COc2c3ccc3c2CN(C2CCC(=O)NC2=O)C3=O)CCN(c2ccc(C(=O)N[C@H]3CC[C@H](Oc4ccc(C#N)c(Cl)c4)CC3)nn2)CC1` (stereo partly drawn) [Compound 155], the inhibition at 0.1 µM came out at 1%.
As to `N#Cc1ccc(O[C@H]2CC[C@H](NC(=O)c3ccc(N4CCC(C#N)(CN5CCC6(CC5)COc5c6ccc6c5CN(C5CCC(=O)NC5=O)C6=O)CC4)nn3)CC2)cc1Cl` (stereo partly drawn) [Compound 156], the inhibition at 0.1 µM was 53%.
Turning to `N#Cc1ccc(O[C@H]2CC[C@H](NC(=O)c3cnc(N4CCC(F)(CN5CCC6(CC5)COc5c6ccc6c5CN(C5CCC(=O)NC5=O)C6=O)CC4)cn3)CC2)cc1Cl` (stereo partly drawn) [Compound 157], the inhibition at 0.1 µM came to 52%.
`N#Cc1ccc(O[C@H]2CC[C@H](NC(=O)c3ccc(N4CCC5(CC4)CC(N4CCC6(CC4)COc4c6ccc6c4CN(C4CCC(=O)NC4=O)C6=O)C5)nn3)CC2)cc1Cl` (stereo partly drawn) [Compound 184]: the inhibition at 0.1 µM stood at 41%.

The same assay, now with this note: LNCaP, 8 h, read-out: Degradation rates of the AR protein in LNCaP cells, 10 nM (%).
Consider `N#Cc1ccc(O[C@H]2CC[C@H](NC(=O)c3ccc(N4CC(N5CCC6(CC5)Cc5cc7c(cc5O6)C(=O)N(C5CCC(=O)NC5=O)C7=O)C4)nn3)CC2)cc1Cl` (stereo partly drawn) [Compound 79], for which the inhibition at 0.01 µM worked out at 23%.

The same assay, now with this note: LNCaP, 8 h, read-out: Degradation rates of the AR protein in LNCaP cells, 100 nM (%).
Consider `N#Cc1ccc(O[C@H]2CC[C@H](NC(=O)c3ccc(N4CC(N5CCC6(CC5)Cc5cc7c(cc5O6)C(=O)N(C5CCC(=O)NC5=O)C7=O)C4)nn3)CC2)cc1Cl` (stereo partly drawn) [Compound 79], for which the inhibition at 0.1 µM amounted to 28%.
